Test results from PMC6936879, “Inhibiting the copper efflux system in microbes as a novel approach for developing antibiotics” (PLoS ONE, 2019).

Test system: E. coli (BL21;DE3)
Assay: E. coli growth rate experiment (O.D. 600 nm) under copper stress
Type: cell-based
Conditions: M9 medium, 37 °C, value after 14 h incubation, 5 μM Cu(II) chloride in assay (sentence does not say with or without Cu(II)), mean ± SE, n = 5
Method: E. coli (BL21;DE3) growth rates were evaluated in 96-well microplates: in 200 μl of a poor medium comprising M9 medium. Incubation was for 16 h at 37°C with Copper(II) chloride (Sigma-Aldrich, St. Louis, MO, USA) at a concentration of 5 μM. Absorbance at 600 nm was measured every 30 min after stirring for 5 s in a 96-well plate reader (SPL Life Sciences, Gyeonggi, Korea). The buffer background was auto-subtracted. Each experiment was repeated five times under identical conditions.
Next, E. coli were grown in M9 medium for 16 h, and their growth rate was evaluated in the absence and presence of Cu(II) in the medium. In each sample, a different peptide was introduced to the medium, with the kanamycin as a positive control. […] Growth rate values for all peptides at various concentrations after 14 h of incubation are presented in Fig 3 (the growth rate curves are presented in Figs E to F in S1 File).
Fig 3 Effect of test peptides on the E. coli growth rate. E. coli cultures were grown as described in Methods. The growth rate values after a 14 h incubation in the medium in the presence (gray lines) and absence (black lines) of Cu(II). Concentrations of the test peptides: A. 50 μM, B. 75 μM, C. 100 μM, and D. 125 μM. *p < 0.05, MEAN ± SE, n = 5, a comparison between the values in the presence and absence of Cu(II). #p < 0.05, MEAN ± SE, n = 5, in the presence of Cu(II) and comparing between values of a buffer and peptide. t-test was used for the statistic evaluation.

AKIQG [pep8]
decrease in O.D. (600 nm) (peptide 50 μM): 45.5 ± 4.8% | decrease in O.D. (600 nm) (peptide 100 μM): 63.6 ± 4.0%
